A short description of this data set: Particle size distribution by laser diffraction (Sympatec Helos). Particulars: laser diffraction at 1 bar dispersive pressure. Format: physicochemical. From the text: As used herein, “particle size distribution” means the cumulative volume size distribution of equivalent spherical diameters as determined by laser diffraction at 1 bar dispersive pressure in a Sympatec Helos equipment. “Median particle size”, correspondingly, means the median of said particle size distribution. When the term “Escitalopram” is used it covers Escitalopram as well as a pharmaceutically acceptable salt and/or a pharmaceutically acceptable solvate thereof.

Each structure is given as a SMILES string. Counter-ions that a name gives are not always drawn.

Take `CN(C)CCC[C@@]1(c2ccc(F)cc2)OCc2cc(C#N)ccc21` [Escitalopram oxalate, (S)-1-[3-(dimethylamino)propyl]-1-(4-fluorophenyl)-1,3-dihydro-5-isobenzofurancarbonitrile]: the median particle size entry is given as “about 6.65 μm”; the “ratio between the median particle size and the particle size at the 95% quantile” value is recorded as “about 0.61”.
